What was measured:
[1] = system: androgen receptor negative prostate (DU145) cell line; assay: Effect on growth of human tumor cells in culture (viable cells, Trypan blue exclusion); assay type: cell-based; conditions: five concentrations (1-100 μM range), read from dose response curve
Description: The effect of compounds according to Formula I on the growth of human tumor cells in culture was evaluated using the androgen receptor negative prostate (DU145) cell line. The cell culture was maintained at 37° C. in a humidified atmosphere of 5% CO2.
Cells were treated with compounds according to Formula I at five different concentrations (1-100 μM range) for each compound. For comparison, the cells were treated with curcumin at the same concentrations. The dose response was established by determining the number of viable cells after 96 h of continuous treatment against each of the different test concentrations of each compound. The determination of viable cells was done by the Trypan blue exclusion method. Activity for each compound at each concentration is reported as a percentage of cells that remain viable.
The GI50 values were determined by direct extrapolation from each dose response curve.

[2] = biological target: recombinant FLT1 active protein (Homo sapiens, UniProt P17948); assay: In vitro filter assay for FLT1 kinase activity; assay type: biochemical; conditions: 30 min preincubation at room temperature, kinase reaction 20 min at 30° C., 100 μM ATP, 250 μM IGF-1Rtide, triplicate
Description: The inhibition of FLT1 by compounds according to Formula I was assessed by employing an in vitro filter assay for FLT1.
Compounds 1-15 were prepared as 10 mmol stock solutions in DMSO. Curcumin was also prepared as a 10 mmol stock solution for testing in the FLT1 assay. Five units of recombinant FLT1 active protein was incubated with different concentrations of each compound in a 15 μl reaction mixture (50 mM HEPES, 10 mM MgCl2, 1 mM EDTA, 2 mM Dithiothreitol 0.01% NP-40 pH 7.5) for 30 minutes at room temperature (25° C). Kinase reactions were performed for 20 minutes at 30° C. in a volume of 20 μl (15 μl enzyme+compound of Formula I, 2 μl 1 mM ATP (100 μM final concentration), 2 μl of γ 32^pATP (40 μci final concentration) and 250 μM of IGF-1Rtide. 10 μl aliquots of the kinase reaction were spotted onto the center of a filter (2 cm×2 cm P81 phosphocellulose paper square). After 30 seconds, the filters were washed with 0.75% phosphoric acid (3×5 minutes) and once with acetone (5 minutes). The wet filters were transferred into a scintillation vial containing scintillation cocktail ^32P (5 mL). Radioactivity was determined using a scintillation counter. Control analyses were performed with DMSO stock solutions containing no compound. Binding values were corrected for non-specific binding by performing duplicate assays in the absence of FLT1 enzyme and subtracting the non-specific binding values from the values obtained in the presence of FLT1. Counts per minute (CPM) of aliquots containing a compound of Formula I were compared with CPM of control samples. The kinase activity is expressed in percent of the maximal kinase activity. […] All assays were carried out in triplicate.

[3] = Homo sapiens, DU-145, 96 h continuous treatment

Sequence of recombinant FLT1 active protein (P17948 27-1338): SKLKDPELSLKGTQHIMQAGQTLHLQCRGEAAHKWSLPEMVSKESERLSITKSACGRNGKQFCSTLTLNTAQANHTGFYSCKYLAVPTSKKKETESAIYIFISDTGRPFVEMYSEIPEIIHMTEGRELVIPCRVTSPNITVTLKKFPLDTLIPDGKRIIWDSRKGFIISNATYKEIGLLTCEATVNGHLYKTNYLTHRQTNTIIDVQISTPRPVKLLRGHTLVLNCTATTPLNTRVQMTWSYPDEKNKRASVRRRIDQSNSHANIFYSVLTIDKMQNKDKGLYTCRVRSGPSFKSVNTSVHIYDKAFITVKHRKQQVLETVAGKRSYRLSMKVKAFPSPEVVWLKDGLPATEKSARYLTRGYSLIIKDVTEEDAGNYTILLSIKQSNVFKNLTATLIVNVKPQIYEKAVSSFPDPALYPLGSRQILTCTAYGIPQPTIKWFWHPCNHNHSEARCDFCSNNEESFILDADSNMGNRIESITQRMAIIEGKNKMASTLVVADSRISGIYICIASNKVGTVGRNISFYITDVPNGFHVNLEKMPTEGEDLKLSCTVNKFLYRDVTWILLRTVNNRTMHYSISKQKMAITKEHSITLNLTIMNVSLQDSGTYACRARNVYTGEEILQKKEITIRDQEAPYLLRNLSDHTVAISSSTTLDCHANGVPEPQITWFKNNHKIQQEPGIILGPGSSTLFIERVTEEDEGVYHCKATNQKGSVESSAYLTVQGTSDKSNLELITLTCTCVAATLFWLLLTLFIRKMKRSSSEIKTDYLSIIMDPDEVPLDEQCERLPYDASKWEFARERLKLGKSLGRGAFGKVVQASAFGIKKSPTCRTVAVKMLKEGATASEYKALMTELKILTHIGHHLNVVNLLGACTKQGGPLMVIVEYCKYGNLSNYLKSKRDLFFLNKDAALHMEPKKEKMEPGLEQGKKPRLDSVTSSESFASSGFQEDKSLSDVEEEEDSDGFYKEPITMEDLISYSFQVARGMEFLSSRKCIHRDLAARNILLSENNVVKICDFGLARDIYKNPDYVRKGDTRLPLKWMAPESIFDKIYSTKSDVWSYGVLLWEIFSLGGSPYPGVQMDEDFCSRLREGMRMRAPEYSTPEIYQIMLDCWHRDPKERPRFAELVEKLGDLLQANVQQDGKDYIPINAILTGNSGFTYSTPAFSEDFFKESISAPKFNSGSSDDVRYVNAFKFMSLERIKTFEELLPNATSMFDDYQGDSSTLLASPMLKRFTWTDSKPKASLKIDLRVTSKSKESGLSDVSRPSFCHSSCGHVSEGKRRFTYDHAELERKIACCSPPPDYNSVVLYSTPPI

Row | Molecule | IC50 [2] [µM] | GI50 [1, 3] [µM] | GI50 ([1]; 96 h continuous treatment) [µM]
1 | 4-((1E)-2-(((E)-4-hydroxy-2,6-dimethoxystyrylsulfonyl)methylsulfonyl)vinyl)-3,5-dimethoxyphenol. [Example 15] | 0.077 | – | < 1
2 | COc1cc(/C=C/S(=O)(=O)CS(=O)(=O)/C=C/c2ccc(O)c(OC)c2)ccc1O [Example 1, 4-((1E)-2-(((E)-4-Hydroxy-3-methoxystyrylsulfonyl)methylsulfonyl)vinyl)-2-methoxyphenol] | 3.89 | < 10 | –
3 | COc1cc(OC)c(/C=C/S(=O)(=O)CS(=O)(=O)/C=C/c2c(OC)cc(OC)cc2OC)c(OC)c1 [Example 2, bis((E)-2,4,6-Trimethoxystyrylsulfonyl)methane] | 0.281 | 75 | –
4 | N#Cc1ccc(/C=C/S(=O)(=O)CS(=O)(=O)/C=C/c2ccc(C#N)cc2F)c(F)c1 [Example 3, 4-((1E)-2-(((E)-2-Fluoro-4-cyanostyrylsulfonyl)methylsulfonyl)vinyl)-3-fluorobenzonitrile] | 0.162 | 25 to 50 | –
5 | O=S(=O)(/C=C/c1ccc(F)cc1F)CS(=O)(=O)/C=C/c1ccc(F)cc1F [Example 4, bis((E)-2,4-Difluorostyrylsulfonyl)methane] | 2.23 | < 10 | –
6 | COc1cccc(OC)c1/C=C/S(=O)(=O)CS(=O)(=O)/C=C/c1c(OC)cccc1OC [Example 5, bis((E)-2,6-Dimethoxystyrylsulfonyl)methane] | 12.8 | 25 to 50 | –
7 | O=S(=O)(/C=C/c1ccc(Cl)cc1)CS(=O)(=O)/C=C/c1ccc(Cl)cc1 [Example 6, bis((E)-4-Chlorostyrylsulfonyl)methane] | 51 | 10 to 25 | –
8 | O=S(=O)(/C=C/c1ccc(Br)cc1)CS(=O)(=O)/C=C/c1ccc(Br)cc1 [Example 7, bis((E)-4-Bromostyrylsulfonyl)methane] | 0.316 | < 10 | –
9 | bis((E)-Perfluorostyrylsulfonyl)methane [Example 13] | 0.416 | – | < 2.5

Second part, led by results:

Row | IC50 [2] [µM] | GI50 [1, 3] [µM] | Molecule | GI50 ([1]; 96 h continuous treatment) [µM]
10 | 11.2 | < 10 | O=S(=O)(/C=C/c1ccsc1)CS(=O)(=O)/C=C/c1ccsc1 [Example 8, bis((E)-2-(Thiophen-3-yl)vinylsulfonyl)methane] | –
11 | > 100 | 10 to 25 | O=S(=O)(/C=C/c1ccccc1)CS(=O)(=O)/C=C/c1ccccc1 [Example 9, bis((E)-Styrylsulfonyl)methane] | –
12 | > 10 | – | O=S(=O)(/C=C/c1ccc(I)cc1)CS(=O)(=O)/C=C/c1ccc(I)cc1 [Example 10, bis((E)-4-Iodostyrylsulfonyl)methane] | –
13 | > 100 | < 10 | O=S(=O)(/C=C/c1ccc(F)cc1)CS(=O)(=O)/C=C/c1ccc(F)cc1 [Example 11, bis((E)-4-Fluorostyrylsulfonyl)methane] | –
14 | > 10 | 7.5 | COc1cc(/C=C/S(=O)(=O)CS(=O)(=O)/C=C/c2cc(OC)c(OC)c(OC)c2)cc(OC)c1OC [Example 14, bis((E)-3,4,5-Trimethoxystyrylsulfonyl)methane] | –
15 | 35 | 35 | COc1cc(/C=C/C(=O)CC(=O)/C=C/c2ccc(O)c(OC)c2)ccc1O [curcumin, reference compound] | –

Reference: patent publication US8058313B2, “Alpha, beta-unsaturated sulfones, sulfoxides, sulfonimides, sulfinimides, acylsulfonamides and acylsulfinamides and therapeutic uses thereof” (Temple University—Of The Commonwealth System of Higher …, priority 2004, dated 2011)
